The text below walks through data of patent publication US20250049860A1, “METHOD FOR ISOLATING, MAINTAINING, PROLIFERATING, AND DIFFERENTIATING MONOCLONAL CELLS DERIVED FROM HUMAN SALIVARY GLAND EPITHELIAL STEM CELLS OR PROGENITOR CELLS AND PRODUCTION METHOD FOR EXTRACELLULAR VESICLES FOR TREATING SALIVARY GLAND DISEASES” (INDUSTRY-ACADEMIC COOPERATION FOUNDATION, YONSEI UNIVERSITY, priority 2021, published 2025).

Type in all cases: cell-based
For assay [1], the system named is human salivary gland epithelial cells. Nature of the assay: Small molecule compound combination check in K-SFM. The note with it: for result of addition to the culture: various combinations of small molecule compounds. The text has this:
Isoproterenol had no effect.

Assay [2] has the same test system. As to the kind of experiment: Concentration screening of small molecule compounds and their combination in Dermacult (KEM). The note with it: added in combination to KEM (Dermacult). How it is done:
Dermacult, which can stably culture human salivary gland epithelial cells in CDM, was used as the epithelial cell culture medium (keratinocyte expansion medium, KEM), and the small molecule compounds ROCK I/II inhibitor (Y-27632), TGF-beta pathway inhibitor (A83-01), and BMP pathway inhibitor (LDN193189) were added to determine the optimal concentrations at which cell characteristics were maintained and stable long-term culture was achieved, respectively (FIG. 3).
Finally, the combination experiments with different concentrations of the small molecule compounds confirmed that salivary gland epithelial cell growth was best maintained when Y-27632 10 μM, A83-01 1 μM, and LDN193189 0.1 μM were added to KEM (FIG. 4).

The test system is the same in assay [3]. As to the kind of experiment: Addition of WNT during cell separation with initial SCM in K-SFM. As to the method:
• (1) The cells were homogenized in 10 ml culture medium, spread evenly onto a 100×20 mm culture dish, and then incubated in an incubator at 37° C. and 5% CO2. In this case, the composition of each culture medium is as shown in Table 1. • (2) To perform the subfractionation culturing method (SCM) to isolate epithelial monoclonal cells, after 2 hours, the culture medium containing the cells was transferred to a new 100×20 mm culture dish. This procedure was repeated two more times. • (3) After 24 hours, the dish resulting from (2) was cultured, and the existing culture medium was removed every 2-3 days and replaced it with fresh culture medium. • (4) After confirming the formation of colonies, when the size of a cell cluster forming one colony exceeded 1 cm^2, the culture medium was removed, the cluster was marked with a hydrophobic pen, and the residual culture medium was removed using 1×PBS. 50 to 100 μL of TrypLE+Y27632 was added, and the cells were stored in an incubator at 37° C. and 5% CO2 environment for 15 minutes. • (5) Each cell population detached from the dish by TrypLE was added to a separate 1.5 ml tube, and 1 ml of culture medium was added. • (6) After centrifugation at 300 g for 5 minutes at 4° C., the supernatant was removed, and the cells were homogenized and spread in 250 μL of fresh culture medium into each well of a 48-well plate for each cell population. […]

As to `CC(C)Oc1ccc(-c2cnc3c(-c4ccnc5ccccc45)cnn3c2)cc1` [DMH-1], the “concentration giving effects similar to Dermacult's YAL” value in assay [1] (LDN193189 replaced with DMH-1) came out at 1 µM.

`C[C@@H](N)[C@H]1CC[C@H](C(=O)Nc2ccncc2)CC1` [Y-27632]: the “result of addition to the culture” value in assay [1] is recorded as “universally good results”. The “concentration at which salivary gland epithelial cell growth was best maintained” value in assay [2] is 10 µM.

Consider `Cc1cccc(-c2nn(C(=S)Nc3ccccc3)cc2-c2ccnc3ccccc23)n1` [A83-01], for which the “result of addition to the culture” value in assay [1] is “universally good results”. In addition, the “concentration at which salivary gland epithelial cell growth was best maintained” value in assay [2] was 1 µM.

As for `c1ccc2c(-c3cnn4cc(-c5ccc(N6CCNCC6)cc5)cnc34)ccnc2c1` [LDN193189], in assay [2], the “concentration at which salivary gland epithelial cell growth was best maintained” value was 0.1 µM.

In the case of `Cc1c[nH]c(-c2cnc(NCCNc3ccc(C#N)cn3)nc2-c2ccc(Cl)cc2Cl)n1` [Chir99021], the “result of addition to the culture” value in assay [1] is on record as “poor results”.

On to `CC(C)NCC(O)c1ccc(O)c(O)c1` (centres unmarked) [Isoproterenol], for which the “result of addition to the culture” value in assay [1] is “no effect”.

Regarding `O=C(NOC[C@H](O)CO)c1ccc(F)c(F)c1Nc1ccc(I)cc1F` [PD0325901], the “result of addition to the culture” value in assay [1] is on record as “poor results”.

B1: WNT: growth factor WNT3A, Recombinant Human Wnt-3a Protein (protein, UniProt P56704 19-352, looked up)
Protein Wnt-3a: SYPIWWSLAVGPQYSSLGSQPILCASIPGLVPKQLRFCRNYVEIMPSVAEGIKIGIQECQHQFRGRRWNCTTVHDSLAIFGPVLDKATRESAFVHAIASAGVAFAVTRSCAEGTAAICGCSSRHQGSPGKGWKWGGCSEDIEFGGMVSREFADARENRPDARSAMNRHNNEAGRQAIASHMHLKCKCHGLSGSCEVKTCWWSQPDFRAIGDFLKDKYDSASEMVVEKHRESRGWVETLRPRYTYFKVPTERDLVYYEASPNFCEPNPETGSFGTRDRTCNVSSHGIDGCDLLCCGRGHNARAERRREKCRCVFHWCCYVSCQECTRVYDVHTCK
Turning to B1, in assay [3] (initial addition), the “effect on cell growth” value is listed as “rapid cell growth”. The “effect on cell morphology” value in assay [3] (prolonged addition) was “changed the morphology of the cells”.
